Test results taken from patent US20040033482A1, “Device and method for the measurement of forces from living materials” (priority 2000, published 2004).

System: fibroblasts (or smooth muscle cells)
Assay: Measurement of lateral intrinsic forces of a cell layer cultured on an elastically deformable membrane (membrane deflection read by laser)
Type: cell-based
Conditions: for change in cell layer tension in dependence on time: FIG. 4, consecutive addition of thrombin (20, 50, 100 U/ml), EDTA (0.1% by weight, 2 min), trypsin (0.2% by weight, 15 min); for tension transmitted to the membrane (intrinsic forces): FIG. 5 and FIG. 6, addition of thrombin, then EDTA, then trypsin
Method: A commercially available PET membrane is adhered to an open end of a cylinder; the other end remains open. During the adhesion process, a metal ring is used to pull uniformly on the membrane, such that the membrane is then stretched so that it is completely flat but not plastically deformed. 400 μl of cell culture medium (DPBS), corresponding to a fill height of a liquid column of about 2 mm, are then applied to the membrane (having a diameter of 16 mm). Due to the culture medium, the membrane is elastically preformed, i.e. deflected, and prepared for the application of living material.
1 ml of a suspension of fibroblasts (or smooth muscle cells), containing a cell count of 5×10^4/ml (or 7×10^4/ml), is then added to the prestretched membrane and the entire device is incubated in an incubator at 37° C. for 4 days for the purpose of culturing the cells. After the culturing, the culture medium is replaced with 400 μl of fresh medium. The mounting, together with membrane and cells cultured on it, which has thus been prepared is inserted into the measuring device and the measurement is carried out using a laser beam as the sensor.
As a result of replication, the cells adhere to the membrane and form a confluent monolayer (or multilayer). In connection with this, the cells secrete, over time, an extracellular matrix (ECM).
As a result of the growth of the cells, and the tensile stress in the cell layer and in the ECM which is connected therewith, and as a result of the fact that the cells and the ECM adhere to the membrane, the membrane experiences a change in tension. As a consequence of this, the deflection of the membrane decreases and raises the fill level of the medium slightly. This change in the deflection of the membrane is determined using a laser.
In order to stimulate the cell layer(s), thrombin is added to the medium to give final concentrations of 0-100 U/ml. 20 U/ml of culture medium are added first of all. The thrombin binds to the thrombin receptors and induces cell contraction. The membrane rises further to a slight extent. In this connection, the cells contract with a time constant which is typical. After a theoretically infinite measuring time, the measured change in the deflection of the membrane reaches a typical saturation value. Further quantities of thrombin are added consecutively to the cell culture medium above the membrane in increasing order, i.e. initially 50 U/ml and then 100 U/ml. The changes in the deflection of the membrane are measured correspondingly.
In each case, the cells are permitted to develop the contraction until, in the simplest case by way of fitting an exponential function, there is no need to await the achievement of the final value but, instead, the final measurement of the achievable concentration can be approximated. This decreases the measuring time. Both the characteristic onset time for the thrombin-mediated contraction effect and the maximum contraction which can be achieved in association with this contraction can be calculated from the exponential function which has been fitted.
The cells are detached from the ECM by adding EDTA (0.1% by weight) for a reaction time of 2 min. The same volumes as the quantities of liquid which are added in this connection are simultaneously removed once again at another site in the measuring chamber. The cells become detached with a typical time constant. As a consequence of this, the tension in the membrane changes since the forces acting on the membrane as a result of the cell contraction are no longer present; this means that the membrane becomes further deflected once again. In this case, too, an exponential function is approximated and the time constant and the final value of the tension recovery can be calculated approximately.
The ECM which is adhering to the membrane still maintains a part of the tension which arose during the cell growth. Adding trypsin (0.2% by weight) for a reaction time of 15 min. degrades the ECM. […]

Molecule	change in cell layer tension in dependence on time	tension transmitted to the membrane (intrinsic forces)
O=C(O)CN(CCN(CC(=O)O)CC(=O)O)CC(=O)O [EDTA]	intrinsic forces which are measured decrease	membrane relaxing
thrombin	contraction of the living material can be observed to increase as the concentration of thrombin increases	increase markedly
trypsin	also declines	tension in the extracellular matrix to subside
